# Reference: patent publication US20220016115A1, “USP19 INHIBITORS FOR USE IN THERAPY” (ALMAC DISCOVERY LIMITED, priority 2018, published 2022)
# Biological target: T1, USP19 (Homo sapiens, UniProt O94966)
# T1 sequence (O94966 1-1318): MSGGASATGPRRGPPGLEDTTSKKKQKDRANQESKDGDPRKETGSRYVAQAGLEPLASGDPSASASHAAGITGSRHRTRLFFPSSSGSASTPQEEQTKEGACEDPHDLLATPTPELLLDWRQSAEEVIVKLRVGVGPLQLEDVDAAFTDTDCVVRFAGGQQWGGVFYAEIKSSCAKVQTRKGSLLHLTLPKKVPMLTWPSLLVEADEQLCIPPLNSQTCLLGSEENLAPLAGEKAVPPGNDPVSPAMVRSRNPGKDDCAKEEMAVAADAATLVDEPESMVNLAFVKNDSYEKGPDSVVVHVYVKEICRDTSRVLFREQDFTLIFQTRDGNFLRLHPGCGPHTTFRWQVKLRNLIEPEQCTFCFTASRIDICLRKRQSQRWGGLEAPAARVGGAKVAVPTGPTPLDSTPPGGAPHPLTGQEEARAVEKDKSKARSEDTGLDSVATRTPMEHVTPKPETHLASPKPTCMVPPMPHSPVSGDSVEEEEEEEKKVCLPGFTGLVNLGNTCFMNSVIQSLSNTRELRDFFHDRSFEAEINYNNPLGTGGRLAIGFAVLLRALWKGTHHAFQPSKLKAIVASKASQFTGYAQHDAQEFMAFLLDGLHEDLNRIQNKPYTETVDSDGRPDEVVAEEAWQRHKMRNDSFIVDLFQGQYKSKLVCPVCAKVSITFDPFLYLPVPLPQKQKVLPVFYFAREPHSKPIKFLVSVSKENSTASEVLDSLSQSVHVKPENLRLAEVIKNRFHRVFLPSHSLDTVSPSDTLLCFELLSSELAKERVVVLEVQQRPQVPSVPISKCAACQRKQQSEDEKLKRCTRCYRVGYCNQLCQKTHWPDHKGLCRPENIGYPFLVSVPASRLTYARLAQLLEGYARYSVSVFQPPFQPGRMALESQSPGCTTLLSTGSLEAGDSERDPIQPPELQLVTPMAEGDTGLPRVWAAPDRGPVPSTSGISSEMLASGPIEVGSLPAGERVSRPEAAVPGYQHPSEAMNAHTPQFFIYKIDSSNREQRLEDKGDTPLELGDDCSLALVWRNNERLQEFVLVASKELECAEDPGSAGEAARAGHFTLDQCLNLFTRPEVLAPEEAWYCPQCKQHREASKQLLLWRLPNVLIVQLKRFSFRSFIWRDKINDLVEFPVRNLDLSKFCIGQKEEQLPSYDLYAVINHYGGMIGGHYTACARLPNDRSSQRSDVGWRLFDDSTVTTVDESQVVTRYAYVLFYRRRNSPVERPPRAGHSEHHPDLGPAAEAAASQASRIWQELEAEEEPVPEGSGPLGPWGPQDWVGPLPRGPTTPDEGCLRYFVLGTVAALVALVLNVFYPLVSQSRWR
# Assay: USP19 fluorescence polarisation (FP) homogeneous assay
# Format: biochemical
# Design: Full-length USP19 was purchased from Boston Biochem (E-576); purchased Boston Biochem E-576
# Details: Ubiquitin-Lys-TAMRA substrate, full-length USP19 2.5 nM, average of at least two duplicate experiments
# Experimental: Unless otherwise stated, all other reagents were purchased from Sigma. Enzymatic reactions were conducted in black flat bottom polystyrene 384-well plates (Nunc) and 30 μL total volume. […] Inhibitors were stored as 10 mM DMSO stocks in an inert environment (low humidity, dark, low oxygen, room temperature) using the Storage Pod System and serial dilutions were prepared in buffer just prior to the assay (from 200 μM to 2 μM, 8-18 data point curve). Following incubation at RT for 30 min, the enzymatic reactions were initiated by dispensing the Ub substrate (500 nM, 10 μL). FP was measured every 15 min over a period of 90 min (within the linear range of the assay) using a Synergy 4 plate reader (BioTek) exciting at 530 nm and measuring the amount of parallel and perpendicular light at 575 nm. The FP signal was subsequently normalised to the no compound control.
row,Molecule,IC50 [nM]
1,"3-(((S)-10-Hydroxy-7-((2R,3R)-2-phenylpyrrolidine-3-carbonyl)-7-azaspiro[4.5]decan-10-yl)methyl)-6-phenylpyrimidin-4(3H)-one and 3-(((S)-10-Hydroxy-7-((2a3S)-2-phenylpyrrolidine-3-carbonyl)-7-azaspiro[4.5]decan-10-yl)methyl)-6-phenylpyrimidin-4(3H)-one [Example 260]",< 500
2,"CC(n1cnc(-c2ccccc2)cc1=O)C1(O)CCN(C(=O)C[C@@H](C)c2ccccc2)CC1 (mixture of isomers) [Example 47, 3-((R)-1-(4-Hydroxy-1-((R)-3-phenylbutanoyl)piperidin-4-yl)ethyl)-6-phenylpyrimidin-4(3H)-one and 3-((S)-1-(4-hydroxy-1-((R)-3-phenylbutanoyl)piperidin-4-yl)ethyl)-6-phenylpyrimidin-4(3H)-one]",50000 to 250000
3,"C[C@H](CC1CCCCC1)C(=O)N1CCC(O)(Cn2cnc(-c3ccccc3)cc2=O)C(C)(C)C1 (mixture of isomers) [Example 50, 3-(((R)-1-((R)-3-Cyclohexyl-2-methylpropanoyl)-4-hydroxy-3,3-dimethylpiperidin-4-yl)methyl)-6-phenylpyrimidin-4(3H)-one and 3-(((S)-1-((R)-3-Cyclohexyl-2-methylpropanoyl)-4-hydroxy-3,3-dimethylpiperidin-4-yl)methyl)-6-phenylpyrimidin-4(3H)-one]",< 500
4,"C[C@H](CC1CCCCC1)C(=O)N1CCC(O)(Cn2cnc(-c3ccccc3F)cc2=O)C2(CCC2)C1 (mixture of isomers) [Example 51, 3-(((R)-6-((R)-3-Cyclohexyl-2-methylpropanoyl)-9-hydroxy-6-azaspiro[3.5]nonan-9-yl)methyl)-6-(2-fluorophenyl)pyrimidin-4(3H)-one and 3-(((S)-6-((R)-3-Cyclohexyl-2-methylpropanoyl)-9-hydroxy-6-azaspiro[3.5]nonan-9-yl)methyl)-6-(2-fluorophenyl)pyrimidin-4(3H)-one]",500 to 5000
5,"C[C@H](CC(=O)N1CCC(O)(Cn2cnc(-c3ccccc3)cc2=O)C(C)(C)C1)c1ccccc1 (mixture of isomers) [Example 53, 3-(((S)-4-Hydroxy-3,3-dimethyl-1-((R)-3-phenylbutanoyl)piperidin-4-yl)methyl)-6-phenylpyrimidin-4(3H)-one and 3-(((R)-4-hydroxy-3,3-dimethyl-1-((R)-3-phenylbutanoyl)piperidin-4-yl)methyl)-6-phenylpyrimidin-4(3H)-one]",500 to 5000
6,"CC(CC1CCC1)C(=O)N1CCC(O)(Cn2cc(C(=O)N3CCCCC3)c(-c3ccccc3)cc2=O)CC1 (racemic) [Example 15, (R,S)-1-((3-Cyclobutyl-2-methylpropanoyl)-4-hydroxypiperidin-4-yl)methyl)-4-phenyl-5-(piperidine-1-carbonyl)pyridin-2(1H)-one]",5000 to 50000
7,"CCC(n1cnc(-c2ccccc2)cc1=O)C1(O)CCN(C(=O)[C@H](C)CC2CCCCC2)CC1 (stereo partly drawn) [Example 43, 3-((S)-1-(1-((R)-3-Cyclohexyl-2-methylpropanoyl)-4-hydroxypipendin-4-yl)propyl)-6-phenylpyrimidin-4(3H)-one and 3-((R)-1-(1-((R)-3-cyclohexyl-2-methylpropanoyl)-4-hydroxypipendin-4-yl)propyl)-6-phenylpyrimidin-4(3H)-one]",5000 to 50000

# Further lines, results first:
row,IC50 [nM],Molecule
1,50000 to 250000,"C[C@H](CC(=O)N1CCC(O)(Cn2cnc(-c3ccccc3)cc2=O)CC1(C)C)c1ccccc1 (mixture of isomers) [Example 61, 3-(((R)-4-Hydroxy-2,2-dimethyl-1-((R)-3-phenylbutanoyl)piperidin-4-yl)methyl)-6-phenylpyrimidin-4(3H)-one and 3-(((S)-4-Hydroxy-2,2-dimethyl-1-((R)-3-phenylbutanoyl)piperidin-4-yl)methyl)-6-phenylpyrimidin-4(3H)-one]"
2,< 500,"CC(C)N(C)C(=O)c1cn(CC2(O)CCN(C(=O)[C@H](C)CC3CCCCC3)CC2(C)C)c(=O)cc1-c1ccccc1 (mixture of isomers) [Example 73, 1-(((R)-1-((R)-3-Cyclohexyl-2-methylpropanoyl)-4-hydroxy-3,3-dimethylpiperidin-4-yl)methyl)-N-isopropyl-N-methyl-6-oxo-4-phenyl-1,6-dihydropyridine-3-carboxamide and 1-(((S)-1-((R)-3-Cyclohexyl-2-methylpropanoyl)-4-hydroxy-3,3-dimethylpiperidin-4-yl)methyl)-N-isopropyl-N-methyl-6-oxo-4-phenyl-1,6-dihydropyridine-3-carboxamide]"
3,< 500,"O=C([C@@H]1CNC[C@H]1c1ccccc1)N1CC[C@@](O)(Cn2cnc(-c3ccccc3)cc2=O)C2(CCCC2)C1 (mixture of isomers) [Example 259, 3-(((S)-10-Hydroxy-7-((3S,4R)-4-phenylpyrrolidine-3-carbonyl)-7-azaspiro[4.5]decan-10-yl)methyl)-6-phenylpyrimidin-4(3H)-one and 3-(((S)-10-Hydroxy-7-((3R,4S)-4-phenylpyrrolidine-3-carbonyl)-7-azaspiro[4.5]decan-10-yl)methyl)-6-phenylpyrimidin-4(3H)-one]"
4,< 500,"C[C@H](CC1CCCCC1)C(=O)N1CCC(O)(Cn2cnc(-c3ccccc3F)cc2=O)C2(CCCC2)C1 (stereo partly drawn) [Example 119, 3-((7-((R)-3-Cyclohexyl-2-methylpropanoyl)-10-hydroxy-7-azaspiro[4.5]decan-10-yl)methyl)-6-(2-fluorophenyl)pyrimidin-4(3H)-one]"
5,< 500,"CC(C)N(C)C(=O)c1cn(C[C@]2(O)CCN(C(=O)[C@H](C)CC3CCCCC3)CC2(C)C)c(=O)cc1-c1ccccc1 [Example 120, 1-(((S)-1-((R)-3-Cyclohexyl-2-methylpropanoyl)-4-hydroxy-3,3-dimethylpiperidin-4-yl)methyl)-N-isopropyl-N-methyl-6-oxo-4-phenyl-1,6-dihydropyridine-3-carboxamide]"
6,< 500,"C[C@H](CC1CCCCC1)C(=O)N1CC[C@@](O)(Cn2cc(C(=O)N(C)C)c(-c3ccccc3)cc2=O)C(C)(C)C1 [Example 121, 1-(((S)-1-((R)-3-Cyclohexyl-2-methylpropanoyl)-4-hydroxy-3,3-dimethylpiperidin-4-yl)methyl)-N,N-dimethyl-6-oxo-4-phenyl-1,6-dihydropyridine-3-carboxamide]"
7,< 500,"C[C@H](CC1CCCCC1)C(=O)N1CC[C@@](O)(Cn2cc(C(=O)N3CCCC3)c(-c3ccccc3)cc2=O)C(C)(C)C1 [Example 123, 1-(((S)-1-((R)-3-Cyclohexyl-2-methylpropanoyl)-4-hydroxy-3,3-dimethylpiperidin-4-yl)methyl)-4-phenyl-5-(pyrrolidine-1-carbonyl)pyridin-2(1H)-one]"
8,< 500,"C[C@H](CC1CCCCC1)C(=O)N1CC[C@@](O)(Cn2cc(C(=O)N3CCNCC3)c(-c3ccccc3)cc2=O)C(C)(C)C1 [Example 124, 1-(((S)-1-((R)-3-Cyclohexyl-2-methylpropanoyl)-4-hydroxy-3,3-dimethylpiperidin-4-yl)methyl)-4-phenyl-5-(piperazine-1-carbonyl)pyridin-2(1H)-one]"
9,< 500,C[C@H](CC1CCCCC1)C(=O)N1CCC(O)(Cn2cnc(-c3ccsc3)cc2=O)C(C)(C)C1 (some centres unmarked) [Example 135]
10,< 500,C[C@H](CC1CCCCC1)C(=O)N1CCC(O)(Cn2cnc(-c3cccc(CO)c3)cc2=O)C(C)(C)C1 (some centres unmarked) [Example 138]
